Experiments:
Assay type in all cases: in vivo
UTERUS = assay: Uterus weight in the ovariectomised rat osteopenia model; details: 4 weeks, weight increase in % of uterus weight of OVX animals receiving solvent only
Protocol: (§1) L'impact osseux de ces dérivés xanthine a été évalué sur un modèle d'ostéopénie, la rate ovariectomisée à l'âge de 3 mois, afin de déterminer ses effets sur la masse osseuse, et sur l'activité de formation et de résorption osseuse. Les animaux sont traités en préventif.
(§2) Sur ce modèle d'ostéopénie l'effet de ces dérivés xanthine est comparé à celui de la PTH • Produit à tester : composé de l'exemple 1 • véhicule(s) : méthylcellulose 0,5 % ou sérum physiologique • dose(s) : 10 mg/kg pour le produit. la PTH est administrée à la dose de 10 µg ou 25 µg/kg/j par voie sous cutanée • nombre d'administrations : une fois/jour; 5 jours/semaine pendant 4 semaines • voie d'administration : voie orale pour le produit. La PTH est administrée par voie sous cutanée • volume : 1 ml/kg p o et s c • délai entre l'injection et le sacrifice : 24 heures • nombre d'administrations : 20
(§3) Des rats femelles âgées de 3 mois et pesant environ 250-300 g sont ovariectomisées sous anesthésie à l'Imalgène 1000, à la dose de 100 mg/kg par voie intrapéritonéale (i.p) et sous un volume de 1 ml/kg. Ils reçoivent également du Nembutal (3 mg/kg i.p. sous un volume de 0,3 ml/kg). Les animaux sont répartis en groupes de 8 rats. Après incision latérale, les plans cutanés et musculaires sont sectionnés. L'exérèse de chaque ovaire se fait après ligature de l'oviducte. Les rats "SHAM" sont anesthésiés dans les mêmes conditions. Après incision des plans cutanés et musculaires, chaque ovaire est exposé puis replacé in situ.
(§4) Les effets des produits sont déterminés après un traitement préventif. Les traitements débutent 24 heures après ovariectomie. Les animaux sont traités pendant 4 semaines, et se répartissent de la façon suivante : • un groupe témoin Sham recevant le ou les véhicules • un groupe témoin OVX recevant le ou les véhicules • OVX + dérivé xanthine • OVX + PTH
Les utérus sont prélevés. Ces derniers sont pesés. L'augmentation du poids est exprimée, en % du poids de l'utérus des animaux ovariectomisés ne recevant que le solvant. • au niveau osseux : […]

Cholestérol = assay: Serum cholesterol level in the ovariectomised rat osteopenia model; details: 4 weeks, decrease of serum cholesterol in % versus OVX animals receiving solvent only
Protocol: as §1, §2, §3, §4
Au terme des 4 semaines de traitement, les animaux sont décapités par guillotine. Les sérums recueillis après centrifugation sont conservés à -20°C. […]

OS TIBIA = assay: Bone mineral density (DEXA) of the tibia in the ovariectomised rat osteopenia model, preventive treatment; details: once daily, 5 days/week for 4 weeks, (BMD treated - BMD OVX)/(BMD SHAM - BMD OVX) x 100
Protocol: as §1, §2, §3, §4
La masse osseuse (BMD ou Bone Mineral Density = densité minérale osseuse) est mesurée par absorptiométrie biphotonique à rayons X à double énergie (DEXA). Les mesures sont réalisées sur les os excisés et débarrassés de tous les tissus mous. […]

Q: What does the source list for PTH?
A: UTERUS Poids % (UTERUS; 10 µg/kg sc): Pas d'effet; UTERUS Poids % (UTERUS; 25 µg/kg sc): 9%; Cholestérol % (Cholestérol; 10 µg/kg sc): Pas d'effet; Cholestérol % (Cholestérol; 25 µg/kg sc): Pas d'effet; OS TIBIA Densité % (OS TIBIA; 10 µg/kg sc): 69%; OS TIBIA Densité % (OS TIBIA; 25 µg/kg sc): 100%

Q: Which results are given for `O=c1c2[nH]cnc2n(-c2ccccc2)c(=O)n1Cc1ccncc1` [ex 1, chlorhydratede 3,7-dihydro-3-phényl-1-(4-pyridinylméthyl)-1H-purine-2,6-dione]?
A: UTERUS Poids % (UTERUS; 10 mg/kg po): 15%; Cholestérol % (Cholestérol; 10 mg/kg po): Pas d'effet; OS TIBIA Densité % (OS TIBIA; 10 mg/kg po): 60%

From patent EP1257552B1, “XANTHINE DERIVATIVES, INTERMEDIATES AND USE FOR TREATING OSTEOPOROSIS” (Aventis Pharma S.A., priority 2000, dated 2001)
